#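 Exposure lasted 48 hours, with cells grown in 96-well plates and compounds tested at five concentrations. The concentration for 50% growth inhibition is given as GI50. TGI denotes the concentration required for complete inhibition of growth.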
# Key:
# Assay in all cases: NCI anticancer screen, dose series, 48 h
# 786-0 renal = system: 786-0 renal
# A498 renal = system: A498 renal
# A549 NSCLC = system: A549 NSCLC
# ACHN renal = system: ACHN renal
# BT-549 breast = system: BT-549 breast
# CAKI-1 renal = system: CAKI-1 renal
# CCRF-CEM leukemia = system: CCRF-CEM leukemia
# COLO 205 colon = system: COLO 205 colon
# DU-145 prostate = system: DU-145 prostate
# HCC-2998 colon = system: HCC-2998 colon
# HCT-116 colon = system: HCT-116 colon
# HCT-15 colon = system: HCT-15 colon
# HL-60(TB) leukemia = system: HL-60(TB) leukemia
# HOP-62 NSCLC = system: HOP-62 NSCLC
# HOP-92 NSCLC = system: HOP-92 NSCLC
# HS 578T breast = system: HS 578T breast
# HT29 colon = system: HT29 colon
# IGROV1 ovarian = system: IGROV1 ovarian
# K-562 leukemia = system: K-562 leukemia
# KM12 colon = system: KM12 colon
# LOX IMVI melanoma = system: LOX IMVI melanoma
# MALME-3M melanoma = system: MALME-3M melanoma
# MCF7 breast = system: MCF7 breast
# MDA-MB-231 breast = system: MDA-MB-231 breast
# MDA-MB-435 = system: MDA-MB-435
# MOLT-4 leukemia = system: MOLT-4 leukemia
# NCI-H226 lung = system: NCI-H226 lung
# NCI-H23 lung = system: NCI-H23 lung
# NCI-H460 lung = system: NCI-H460 lung
# NCI-H522 lung = system: NCI-H522 lung
# NCI/ADR-RES ovarian = system: NCI/ADR-RES ovarian
# OVCAR-3 ovarian = system: OVCAR-3 ovarian
# OVCAR-4 ovarian = system: OVCAR-4 ovarian
# OVCAR-5 ovarian = system: OVCAR-5 ovarian
# OVCAR-8 ovarian = system: OVCAR-8 ovarian
# PC-3 prostate = system: PC-3 prostate
# RPMI-8226 leukemia = system: RPMI-8226 leukemia
# RXF 393 renal = system: RXF 393 renal
# SF-268 CNS = system: SF-268 CNS
# SF-295 CNS = system: SF-295 CNS
# SF-539 CNS = system: SF-539 CNS
# SK-MEL-2 melanoma = system: SK-MEL-2 melanoma
# SK-MEL-28 melanoma = system: SK-MEL-28 melanoma
# SK-MEL-5 melanoma = system: SK-MEL-5 melanoma
# SK-OV-3 ovarian = system: SK-OV-3 ovarian
# SN12C renal = system: SN12C renal
# SNB-19 CNS = system: SNB-19 CNS
# SNB-75 CNS = system: SNB-75 CNS
# SR leukemia = system: SR leukemia
# SW-620 colon = system: SW-620 colon
# T-47D breast = system: T-47D breast
# TK-10 renal = system: TK-10 renal
# U251 CNS = system: U251 CNS
# UACC-257 melanoma = system: UACC-257 melanoma
# UACC-62 melanoma = system: UACC-62 melanoma
# UO-31 renal = system: UO-31 renal
compound,measurement,setting,value
CCc1ccc(CNCC(O)c2ccccc2)cc1 (configuration not stated),GI50,786-0 renal,20.1 µM
same,TGI,786-0 renal,53.8 µM
same,GI50,A498 renal,5.14 µM
same,TGI,A498 renal,47.2 µM
same,GI50,A549 NSCLC,39.2 µM
same,TGI,A549 NSCLC,> 100 µM
same,GI50,ACHN renal,31.4 µM
same,TGI,ACHN renal,> 100 µM
same,GI50,BT-549 breast,8.3 µM
same,TGI,BT-549 breast,> 100 µM
same,GI50,CAKI-1 renal,25.4 µM
same,TGI,CAKI-1 renal,> 100 µM
same,GI50,CCRF-CEM leukemia,34.5 µM
same,TGI,CCRF-CEM leukemia,> 100 µM
same,GI50,COLO 205 colon,16.6 µM
same,TGI,COLO 205 colon,33 µM
same,GI50,DU-145 prostate,35.5 µM
same,TGI,DU-145 prostate,> 100 µM
same,GI50,HCC-2998 colon,17.9 µM
same,TGI,HCC-2998 colon,36.8 µM
same,GI50,HCT-116 colon,28.4 µM
same,TGI,HCT-116 colon,> 100 µM
same,GI50,HCT-15 colon,17.3 µM
same,TGI,HCT-15 colon,53 µM
same,GI50,HL-60(TB) leukemia,23.4 µM
same,TGI,HL-60(TB) leukemia,68.6 µM
same,GI50,HOP-62 NSCLC,37.1 µM
same,TGI,HOP-62 NSCLC,> 100 µM
same,GI50,HOP-92 NSCLC,6.14 µM
same,TGI,HOP-92 NSCLC,38.1 µM
same,GI50,HS 578T breast,28.1 µM
same,TGI,HS 578T breast,> 100 µM
same,GI50,HT29 colon,21.5 µM
same,TGI,HT29 colon,68.4 µM
same,GI50,IGROV1 ovarian,47.8 µM
same,TGI,IGROV1 ovarian,> 100 µM
same,GI50,K-562 leukemia,7.85 µM
same,TGI,K-562 leukemia,62.6 µM
same,GI50,KM12 colon,15 µM
same,TGI,KM12 colon,32.1 µM
same,GI50,LOX IMVI melanoma,16.4 µM
same,TGI,LOX IMVI melanoma,34 µM
same,GI50,MALME-3M melanoma,14.8 µM
same,TGI,MALME-3M melanoma,31.2 µM
same,GI50,MCF7 breast,15.5 µM
same,TGI,MCF7 breast,34.2 µM
same,GI50,MDA-MB-231 breast,13.2 µM
same,TGI,MDA-MB-231 breast,35.7 µM
same,GI50,MDA-MB-435,6.93 µM
same,TGI,MDA-MB-435,20.1 µM
same,GI50,MOLT-4 leukemia,21.8 µM
same,TGI,MOLT-4 leukemia,54.5 µM
same,GI50,NCI-H226 lung,> 100 µM
same,TGI,NCI-H226 lung,> 100 µM
same,GI50,NCI-H23 lung,49.2 µM
same,TGI,NCI-H23 lung,> 100 µM
same,GI50,NCI-H460 lung,19.1 µM
same,TGI,NCI-H460 lung,42.8 µM
same,GI50,NCI-H522 lung,24.7 µM
same,TGI,NCI-H522 lung,70.5 µM
same,GI50,NCI/ADR-RES ovarian,20.8 µM
same,TGI,NCI/ADR-RES ovarian,71.2 µM
same,GI50,OVCAR-3 ovarian,25.2 µM
same,TGI,OVCAR-3 ovarian,79.2 µM
same,GI50,OVCAR-4 ovarian,29.6 µM
same,TGI,OVCAR-4 ovarian,> 100 µM
same,GI50,OVCAR-5 ovarian,18.1 µM
same,TGI,OVCAR-5 ovarian,44.2 µM
same,GI50,OVCAR-8 ovarian,26.5 µM
same,TGI,OVCAR-8 ovarian,> 100 µM
same,GI50,PC-3 prostate,34.8 µM
same,TGI,PC-3 prostate,> 100 µM
same,GI50,RPMI-8226 leukemia,22.7 µM
same,TGI,RPMI-8226 leukemia,53.3 µM
same,GI50,RXF 393 renal,14.3 µM
same,TGI,RXF 393 renal,45.5 µM
same,GI50,SF-268 CNS,33.6 µM
same,TGI,SF-268 CNS,> 100 µM
same,GI50,SF-295 CNS,16.5 µM
same,TGI,SF-295 CNS,35.5 µM
same,GI50,SF-539 CNS,16.5 µM
same,TGI,SF-539 CNS,39.5 µM
same,GI50,SK-MEL-2 melanoma,17.2 µM
same,TGI,SK-MEL-2 melanoma,33.7 µM
same,GI50,SK-MEL-28 melanoma,14.5 µM
same,TGI,SK-MEL-28 melanoma,28.7 µM
same,GI50,SK-MEL-5 melanoma,15.7 µM
same,TGI,SK-MEL-5 melanoma,29.2 µM
same,GI50,SK-OV-3 ovarian,63 µM
same,TGI,SK-OV-3 ovarian,> 100 µM
same,GI50,SN12C renal,33.5 µM
same,TGI,SN12C renal,> 100 µM
same,GI50,SNB-19 CNS,46.9 µM
same,TGI,SNB-19 CNS,> 100 µM
same,GI50,SNB-75 CNS,5.39 µM
same,TGI,SNB-75 CNS,42.2 µM
same,GI50,SR leukemia,13.5 µM
same,TGI,SR leukemia,49.2 µM
same,GI50,SW-620 colon,18.5 µM
same,TGI,SW-620 colon,42.9 µM
same,GI50,T-47D breast,20.2 µM
same,TGI,T-47D breast,51.9 µM
same,GI50,TK-10 renal,34.2 µM
same,TGI,TK-10 renal,> 100 µM
same,GI50,U251 CNS,17.7 µM
same,TGI,U251 CNS,43.1 µM
same,GI50,UACC-257 melanoma,16.2 µM
same,TGI,UACC-257 melanoma,35.7 µM
same,GI50,UACC-62 melanoma,16.5 µM
same,TGI,UACC-62 melanoma,32.4 µM
same,GI50,UO-31 renal,18.9 µM
same,TGI,UO-31 renal,> 100 µM

# Reference: PubChem BioAssay (NCI)
